{"source": "patent US20050209295A1", "about": "“Methimazole derivatives and tautomeric cyclic thiones to inhibit cell adhesion” (priority 2004, published 2005)", "assay_type_in_all_cases": "cell-based, human", "key": {"VCAM-1 promoter": {"test_system": "VCAM-1 promoter", "test": "TNF-alpha-induced VCAM-1 promoter activity, dual luciferase reporter assay in HAEC", "protocol": "(§1) Cell culture and treatment of HAEC: Human aortic endothelial cells (HAEC; Cambrex Bio Science Walkersville, Inc., Walkersville, Md.) are cultured in M199 supplemented with 8% FBS, 100 μg/ml heparin, 10 ng/ml endothelial growth factor, 100 μg/ml hypothalamus extract, 2 mM L-glutamine, 1% non-essential amino acids, 100 units/ml penicillin and 100 μg/ml streptomycin. HAEC are subcultured on gelatin pre-coated: 96-well tissue culture plates (Corning Incorporated; Corning, N.Y.) for viability assays and ELISA; 100-mm tissue culture dishes (BD Falcon; Franklin Lakes, N.J.) for Northern blot analyses, Western blot analyses and EMSA; 35-mm tissue culture dishes (Corning) for adhesion assays and on 24-well tissue culture plates for luciferase promoter assays (BD Falcon). All experiments are performed with confluent HAEC monolayers. Unless noted otherwise, HAEC are treated with 25 ng/ml TNF-α, in the absence or presence of C-10 or 0.25% DMSO (carrier control for C-10), for 2-24 hrs. The concentration of DMSO is held constant at 0.25% (unless indicated otherwise) for all of the C-10 conditions.\nDual Luciferase Assay: Four human VCAM-1 promoter deletion constructs of different length, −1641/+12, −288/+12, −228/+12, −85/+12 bp are amplified by PCR from human genomic DNA. Each upstream primer contained a restriction endonuclease Mlu I site located at the 5′-end of the primer. The downstream primer corresponding to the +12 end contained a restriction endonuclease Xho I site at the 5′-end. The PCR products are digested by Mlu I and Xho I (New England Biolabs Inc., Beverly, Mass.) and ligated into a similarly digested pGL3 basic luciferase reporter vector (Promega, Madison, Wis.). Cells are transfected for 24 hrs. with 400 ng of indicated constructs, or pGL3 basic luciferase reporter vector as control, using GeneJuice transfection reagent (Novagen Inc., Madison, Wis.). All cells are also transfected with phRL-TK (Int−) vector (Promega), which contains wildtype Renilla luciferase (Rluc) as an “internal” transfection control. Luciferase assays are conducted with the Dual-Luciferase Reporter Assay System (Promega) on a Lumat LB 9507 tube luminometer. In every experiment, each condition is run in triplicate wells. Each experiment is replicated at least twice."}, "ICAM-1": {"test_system": "ICAM-1", "test": "TNF-α induced ICAM-1 mRNA in HAEC (Northern blot)", "protocol": "as §1\nHAEC are washed with PBS and total RNA extracted using a commercial kit (RNeasy Mini Kit; Qiagen Inc.; Valencia, Calif.). 12 μg of total RNA per lane is resolved on 1% denaturing agarose gels containing 0.66M formaldehyde. […]"}, "IRF-1": {"test_system": "IRF-1", "test": "EMSA of TNF-α induced IRF-1 binding activity to VCAM-1 promoter", "details": "0.5 mM and 1 mM; 2 hr. TNF-α; HAEC nuclear extract", "protocol": "Nuclear Extracts and EMSA: Nuclear extracts are prepared from harvested HAEC using NE-PER® extraction reagents (Pierce Chemical Co.; Rockford, Ill.) in the presence of a protease inhibitor cocktail (PMSF, Leupeptin, Pepstatin-A). Oligonucleotides (Biosynthesis Inc.; Lewisville, Tex.) are annealed and precipitated double stranded oligonucleotides end labeled with γ-^32P-ATP using T4 polynucleotide kinase enzyme. Binding reactions (20 min., room temperature) included ^32P-labeled probe (activity 100,000 cpm), 3-6 μg HAEC nuclear extract, 1 μg poly(dI-dC), 1 mM DTT, 10% glycerol and 1× binding buffer. Binding buffer (10×) for NF-κB EMSA is 200 mM HEPES-KOH (pH7.9), 340 mM KCl, 50 mM MgCl2, 5 mM EDTA (pH 8.0), 1% Triton X-100. Binding buffer (10×) for IRF-1 EMSA is 100 mM Tris-HCL (pH 7.5), 500 mM NaCl, 50 mM MgCl2, 10 mM EDTA (pH 8.0). In competition studies, nuclear extracts are incubated with 100 fold molar excess of unlabeled double stranded oligonucleotide. In supershift studies, nuclear extracts are incubated with 2 μg of appropriate antibodies. After the incubations, reaction mixtures are electrophoresed (160V, room temperature) on 5% non-denaturing polyacrylamide gels containing 5% glycerol in 1×TBE (50 mM Tris, 50 mM boric acid, and 1 mM EDTA). Gels are dried and autoradiographed. Each experiment is replicated at least twice. […]"}}}
{"smiles": "Cn1c(-c2ccccc2)cnc1S", "note": "[5-Phenylmethimazole]", "values": [{"measurement": "effect on TNF-α induced promoter activities of the four VCAM-1 constructs", "setting": "VCAM-1 promoter; 0.3 mM, 10 ng/ml TNF-α 6 hrs., −1641/+12, −288/+12, −228/+12, −85/+12 bp constructs", "value": "inhibits"}, {"measurement": "% INHIBITION of TNF-alpha-induced VCAM-1 promoter activity", "setting": "VCAM-1 promoter; 10 :M, hVCAM-1(−228 to +12)-luciferase construct, mean ± SD", "value": "31 ± 5", "unit": "%"}, {"measurement": "% INHIBITION of TNF-alpha-induced VCAM-1 promoter activity", "setting": "VCAM-1 promoter; 100 :M, hVCAM-1(−228 to +12)-luciferase construct, mean ± SD", "value": "61 ± 3", "unit": "%"}, {"measurement": "inhibition at 5000 µM", "setting": "VCAM-1 promoter; Homo sapiens, 5.0 mM, hVCAM-1(−228 to +12)-luciferase construct, mean ± SD", "value": "72 ± 3", "unit": "%"}, {"measurement": "effect on TNF-α induced ICAM-1 mRNA expression", "setting": "ICAM-1; 2 hr. TNF-α", "value": "no effect"}, {"measurement": "effect on TNF-α induced ICAM-1 mRNA expression", "setting": "ICAM-1; 24 hr. TNF-α", "value": "little to no effect"}, {"measurement": "effect on formation of TNF-α induced IRF-1 complex (EMSA)", "setting": "IRF-1", "value": "inhibits"}]}
